Experimental data reported in ChEMBL document CHEMBL4393707, “Synthesis and evaluation of new quinazolin-4(3H)-one derivatives as potent antibacterial agents against multidrug resistant Staphylococcus aureus and Mycobacterium tuberculosis” (Eur J Med Chem, 2019).
Converted amounts (≈) assume the structure as drawn. The source made the active and inactive calls. No cut-off for these calls is given here.

Experiments:
[1] = Selectivity index, ratio of CC50 for African green monkey Vero cells to MIC for Staphylococcus aureus ATCC 29213; type: toxicity; conditions: read-out: Selectivity Index
[2] = test system: Staphylococcus aureus; test: Antimicrobial activity against Staphylococcus aureus ATCC 29213 infected in BALB/c mouse model of neutropenic thigh infection assessed reduction in bacterial levels in thigh at 25 mg/kg, ip administered 3 hrs post infection twice at interval of 3 hrs between injections and measured after 24 hrs; type: functional, organism-based
[3] = test system: Staphylococcus aureus; test: Potentiation of meropenem-induced antibacterial activity against Staphylococcus aureus ATCC 29213 assessed as FIC incubated for 24 hrs by checkerboard titration assay; type: functional
[4] = test system: Staphylococcus aureus; test: Antibacterial activity against Staphylococcus aureus ATCC 29213 assessed as post antibiotic effect time at 10 times MIC incubated for 1 hr followed by compound washout and measured at 1 hr intervals (reference value: 0 hrs); type: functional
[5] = test system: Staphylococcus aureus; test: Synergistic antibacterial activity against Staphylococcus aureus ATCC 29213 assessed as FIC incubated for 24 hrs in presence of meropenem by checkerboard titration assay; type: functional
[6] = test system: Staphylococcus aureus; test: Antibiofilm activity against Staphylococcus aureus ATCC 29213 at 10 times MIC incubated 48 hrs by crystal violet staining based assay relative to control; type: functional
[7] = test system: Staphylococcus aureus; test: Synergistic antibacterial activity against Staphylococcus aureus ATCC 29213 incubated for 24 hrs in presence of levofloxacin by checkerboard titration assay; type: functional; conditions: ATCC 29213, 24 h
[8] = test system: Staphylococcus aureus; test: Antibacterial activity against Staphylococcus aureus ATCC 29213 assessed as time required to increase 1 log10 CFU at MIC incubated for 1 hr followed by compound washout and measured at 1 hr intervals (reference value: 2 hrs); type: functional
[9] = test system: Staphylococcus aureus; test: Antimicrobial activity against Staphylococcus aureus ATCC 29213 infected in BALB/c mouse model of neutropenic thigh infection assessed reduction in bacterial levels in thigh at 50 mg/kg, ip administered 3 hrs post infection twice at interval of 3 hrs between injections and measured after 24 hrs; type: functional, organism-based
[10] = test system: Staphylococcus aureus; test: Potentiation of gentamycin-induced antibacterial activity against Staphylococcus aureus ATCC 29213 assessed as FIC incubated for 24 hrs by checkerboard titration assay; type: functional
[11] = test system: Staphylococcus aureus; test: Antibacterial activity against Staphylococcus aureus ATCC 29213 assessed as post antibiotic effect time at MIC incubated for 1 hr followed by compound washout and measured at 1 hr intervals (reference value: 0 hrs); type: functional
[12] = test system: Staphylococcus aureus; test: Synergistic antibacterial activity against Staphylococcus aureus ATCC 29213 assessed as FIC incubated for 24 hrs in presence of ceftazidime by checkerboard titration assay; type: functional
[13] = test system: Staphylococcus aureus; test: Antibacterial activity against methicillin-resistant Staphylococcus aureus NR10191 incubated for 16 to 18 hrs by broth microdilution assay; type: functional
[14] = test system: Staphylococcus aureus; test: Potentiation of vancomycin-induced antibacterial activity against Staphylococcus aureus ATCC 29213 assessed as FIC incubated for 24 hrs by checkerboard titration assay; type: functional
[15] = test system: Staphylococcus aureus; test: Potentiation of rifampicin-induced antibacterial activity against Staphylococcus aureus ATCC 29213 assessed as rifampicin MIC incubated for 24 hrs by checkerboard titration assay (reference value: […] ug/ml); type: functional; conditions: ATCC 29213, 24 h
[16] = test system: Staphylococcus aureus; test: Synergistic antibacterial activity against Staphylococcus aureus ATCC 29213 assessed as sum of FIC for test compound in presence of meropenem and FIC for meropenem in presence of test compound incubated for 24 hrs by checkerboard titration assay; type: functional
[17] = test system: Escherichia coli; test: Antibacterial activity against Escherichia coli ATCC 25922 incubated for 16 to 18 hrs by broth microdilution assay; type: functional
[18] = test system: Staphylococcus aureus; test: Synergistic antibacterial activity against Staphylococcus aureus ATCC 29213 incubated for 24 hrs in presence of minocycline by checkerboard titration assay; type: functional; conditions: ATCC 29213, 24 h
[19] = test system: Staphylococcus aureus; test: Potentiation of rifampicin-induced antibacterial activity against Staphylococcus aureus ATCC 29213 assessed as FIC incubated for 24 hrs by checkerboard titration assay; type: functional
[20] = test system: Staphylococcus aureus; test: Antibacterial activity against methicillin-resistant Staphylococcus aureus NR10192 incubated for 16 to 18 hrs by broth microdilution assay; type: functional
[21] = test system: Staphylococcus aureus; test: Synergistic antibacterial activity against Staphylococcus aureus ATCC 29213 assessed as FIC incubated for 24 hrs in presence of daptomycin by checkerboard titration assay; type: functional
[22] = test system: Staphylococcus aureus; test: Antimicrobial activity against Staphylococcus aureus ATCC 29213 infected in ip dosed BALB/c mouse model of neutropenic thigh infection assessed reduction in bacterial levels administered 3 hrs post infection twice at interval of 3 hrs between injections and measured after 24 hrs; type: functional, organism-based
[23] = test system: Staphylococcus aureus; test: Antibacterial activity against Staphylococcus aureus ATCC 29213 incubated for 16 to 18 hrs by broth microdilution assay; type: functional
[24] = test system: Staphylococcus aureus; test: Antibacterial activity against methicillin-resistant Staphylococcus aureus NR10186 incubated for 16 to 18 hrs by broth microdilution assay; type: functional
[25] = test system: Staphylococcus aureus; test: Synergistic antibacterial activity against Staphylococcus aureus ATCC 29213 assessed as sum of FIC for test compound in presence of rifampicin and FIC for rifampicin in presence of test compound incubated for 24 hrs by checkerboard titration assay; type: functional
[26] = test system: Staphylococcus aureus; test: Antibacterial activity against Staphylococcus aureus ATCC 29213 assessed as time required to increase 1 log10 CFU at 10 times MIC incubated for 1 hr followed by compound washout and measured at 1 hr intervals (reference value: 2 hrs); type: functional
[27] = test system: Staphylococcus aureus; test: Synergistic antibacterial activity against Staphylococcus aureus ATCC 29213 assessed as FIC incubated for 24 hrs in presence of vancomycin by checkerboard titration assay; type: functional
[28] = test system: Staphylococcus aureus; test: Antibacterial activity against methicillin-susceptible Staphylococcus aureus ATCC 29213 incubated for 16 to 18 hrs by broth microdilution assay; type: functional
[29] = test system: Staphylococcus aureus; test: Potentiation of daptomycin-induced antibacterial activity against Staphylococcus aureus ATCC 29213 assessed as FIC incubated for 24 hrs by checkerboard titration assay; type: functional
[30] = test system: Staphylococcus aureus; test: Synergistic antibacterial activity against Staphylococcus aureus ATCC 29213 incubated for 24 hrs in presence of linezolid by checkerboard titration assay; type: functional; conditions: ATCC 29213, 24 h
[31] = test system: Staphylococcus aureus; test: Antibacterial activity against methicillin-resistant Staphylococcus aureus NR119 incubated for 16 to 18 hrs by broth microdilution assay; type: functional
[32] = test system: Staphylococcus aureus; test: Potentiation of minocycline-induced antibacterial activity against Staphylococcus aureus ATCC 29213 assessed as FIC incubated for 24 hrs by checkerboard titration assay; type: functional
[33] = test system: Staphylococcus aureus; test: Synergistic antibacterial activity against Staphylococcus aureus ATCC 29213 assessed as FIC incubated for 24 hrs in presence of minocycline by checkerboard titration assay; type: functional
[34] = test system: Staphylococcus aureus; test: Synergistic antibacterial activity against Staphylococcus aureus ATCC 29213 assessed as sum of FIC for test compound in presence of linezolid and FIC for linezolid in presence of test compound incubated for 24 hrs by checkerboard titration assay; type: functional
[35] = Selectivity index, ratio of CC50 for African green monkey Vero cells to MIC for Mycobacterium tuberculosis H37Rv; type: toxicity; conditions: read-out: Selectivity Index

Structure (SMILES) | selectivity ratio [1] | FIC [3] | FIC [5] | MIC [7] | FIC [10] | FIC [12] | MIC [13] | FIC [14] | MIC [15] | FIC [16] | MIC [17] | MIC [18] | FIC [19] | MIC [20] | FIC [21] | MIC [23] | MIC [24] | FIC [25] | FIC [27] | MIC [28] | further results
N#Cc1ccc(/C=C/c2nc3ccccc3c(=O)n2-c2ccc(C(=O)O)c(O)c2)cc1 | > 167 | 0.003 | 0.032 | 1.9 ng/mL | 0.007 | 0.032 | < 0.125 µg/mL | 0.003 | 0.03 ng/mL | 0.036 | > 64 µg/mL | 1.9 ng/mL | 0.002 | < 0.125 µg/mL | 0.032 | 0.03 µg/mL (≈ 0.0733 µM) | < 0.125 µg/mL | 0.034 | 0.032 | < 0.125 µg/mL | Activity [2]: Active; Time [4]: 2 h; Activity [6]: 14.1%; Time [8]: 2 h; Activity [9]: Active; Time [11]: 0 h; Activity [22]: Dose-dependent effect; Time [26]: 4 h; FIC [29]: 0.003; MIC [30]: 1.9 ng/mL; MIC [31]: 0.125 to 0.25 µg/mL (≈ 0.305 to 0.611 µM); FIC [32]: 0.007; FIC [33]: 0.032; FIC [34]: 0.036
N#Cc1ccc(/C=C/c2nc3cccc(F)c3c(=O)n2-c2cccc(O)c2)cc1 | > 83.4 | 0.0018 | 0.0625 | 7.8 ng/mL | 0.0078 | 0.0625 | < 0.125 µg/mL | 0.0039 | 0.03 ng/mL | 0.0643 | > 64 µg/mL | 7.8 ng/mL | 0.002 | < 0.125 µg/mL | 0.0625 | 0.0625 µg/mL (≈ 0.163 µM) | < 0.125 µg/mL | 0.0645 | 0.0625 | < 0.125 µg/mL | selectivity ratio [35]: > 12.5; FIC [29]: 0.0019; MIC [30]: 7.8 ng/mL; MIC [31]: < 0.125 µg/mL; FIC [32]: 0.0072; FIC [33]: 0.0625; FIC [34]: 0.0662
